# Laboratory results as given in patent US4666908A, “5-Substituted pyrazolo[4,3-d]pyrimidine-7-ones and methods of use” (Warner-Lambert Company, priority 1985, dated 1987).
# Read-outs that look alike come from different tables or passages of the source.
# What was measured:
# Type 1 Phosphodiesterase = experiment: Phosphodiesterase (PDE) Inhibition, Type 1 Phosphodiesterase; type: biochemical, bovine (coronary arteries); settings: Type 1 PDE, at 10^-5 M; for % Inhibition of hydrolysis of 3H-cAMP: substrate 3H-cAMP 1.0 μM; for % Inhibition of hydrolysis of 3H-cGMP: substrate 3H-cGMP 1.0 μM
# Source text: (§1) The method of Thompson, et al (Thompson, W. J., Terasaki, W. L., Epstein, P. M., Strada, S. J., Adv. Cyclic Nucleotide Res., 10:69-92, 1979), with minor modifications, was used to isolate phosphodiesterases from vascular smooth muscle. Bovine coronary arteries (right, anterior descending, and left circumflex arteries) from hearts obtained from a local slaughterhouse were used for these studies. Arteries from two hearts were used for each isolation. Hearts were kept on ice and the arteries were dissected within two hours after the animals were sacrificed. After removing all fat and connective tissue, the arteries were everted, cut into cubes with a single edge razor blade and homogenized with a Brinkman Polytron three times at a rheostat setting of 10.0 in four volumes of the PDE isolation buffer (10 mM Tris-HCl/pH 7.5, 2 mM MgCl2, and 1 mM dithiothreitol). The resulting homogenate was sonicated (30 sec/ml homogenate) and then centrifuged at 30,000 xg for 20 minutes. This and all subsequent procedures were performed at 4° C. The resulting supernatant was filtered through four layers of gauze, and applied to a DEAE-cellulose column (30×1.5 cm), prepared as described by Cheung (Cheung, W. Y., Biochim. Biophys. Acta, 191:303-315, 1969), and equilibrated with freshly prepared 70 mM sodium acetate/5 mM 2-mercaptoethanol (pH 6.5). The column was then washed with 2-3 bed volumes of sodium acetate/2-mercaptoethanol, after which the phosphodiesterases were eluted from the column using a continuous 70-1,000 mM sodium acetate gradient (pH 6.5, containing 5 mM 2-mercaptoethanol; total volume 400 ml). The flow rate was approximately equal to 25 ml/hr. Eight ml fractions were collected and assayed for cyclic AMP- and cyclic GMP-phosphodiesterase activity in the presence and absence of 0.1 units of calmodulin and 10 mM CaCl2. Appropriate fractions were pooled and dialyzed against 70 mM sodium acetate/5 mM 2-mercaptoethanol for 20 hours.
# (§2) Following complete separation, the combined phosphodiesterase fractions were concentrated to 14% of the original volume using an Amicon ultrafiltration cell fitted with a UM-10 membrane, according to the method of Wells, et al (Wells, J. N., Baird, C. E., Wu, Y. J., Hardman, J. G., Biochim. Biophys. Acta, 384:430-442, 1975). Following concentration, the protein was then diluted to 65% with ethylene glycol monoethyl ether, and stored at -20° C.
# (§3) Phosphodiesterase activity was measured as described previously (Weishaar, P. E., Quade, M., Boyd, D., Schenden, J., Mark, S. S., Kaplan, H. R., Drug Devel. Res., 3:517-534, 1983), in a reaction medium containing 40 mM Tris-HCl (pH 8.0), 5 mM MgCl and 4 mM 2-mercaptoethanol. Unless otherwise noted, the concentration of substrate (^3 H-cyclic AMP or ^3 H-cyclic GMP) was 1.0 μM. All agents examined were dissolved in dimethyl sulfoxide (DMSO). Final concentration of the reaction medium was either 2.5% (cardiac and platelet studies) or 1.25% (smooth muscle studies). This concentration of DMSO produced an approximately 10% inhibition of enzyme activity.
# Type 3 Phosphodiesterase = experiment: Phosphodiesterase (PDE) Inhibition, Type 3 Phosphodiesterase; type: biochemical, bovine (coronary arteries); settings: Type 3 PDE, at 10^-5 M, substrate 3H-cAMP 1.0 μM
# Source text: as §1, §2, §3
# adenosine A1 receptor = target: T1, adenosine A1 receptor (Rattus norvegicus, UniProt P25099); experiment: Adenosine Receptor Binding - A1 Receptor Affinity (RBA1), [3H]-N6-cyclohexyladenosine displacement; settings: [3H]-CHA 1.0 nM, rat brain membranes, 25° C., one hour; read-out: RBA-1, IC50 for adenosine A1 receptor affinity
# T1 construct: Whole brain minus cerebellum and brainstem from male Long Evans rats; from tissue; host or cells: whole brain minus cerebellum and brainstem, male Long Evans rats (membranes)
# T1 sequence (P25099 1-326): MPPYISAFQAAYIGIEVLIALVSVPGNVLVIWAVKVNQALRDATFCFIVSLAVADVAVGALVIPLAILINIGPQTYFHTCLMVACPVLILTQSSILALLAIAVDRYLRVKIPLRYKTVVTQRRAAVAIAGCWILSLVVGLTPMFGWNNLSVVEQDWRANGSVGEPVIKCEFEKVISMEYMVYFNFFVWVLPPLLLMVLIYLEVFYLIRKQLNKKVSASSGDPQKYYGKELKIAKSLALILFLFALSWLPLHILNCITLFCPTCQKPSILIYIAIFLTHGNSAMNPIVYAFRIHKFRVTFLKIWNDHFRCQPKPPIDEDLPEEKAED
# Protocol: Whole brain minus cerebellum and brainstem from male Long Evans rats (150-200 g) was homogenized in 30 volumes of ice-cold 0.05M Tris-HCl buffer pH 7.7 using a Brinkman Polytron PT-10, (setting number 6 for 20 seconds) and centrifuged for ten minutes at 20,000×g (Sorvall RC-2), 4° C. The supernatant was discarded, and the pellet was resuspended and centrifuged as before. […] The homogenate was again centrifuged, and the final pellet was resuspended in ice-cold 0.05 M Tris-HCl buffer pH 7.7 to a concentration of 20 mg/ml original wet tissue weight and used immediately. […] Incubation volume was 2 ml. […] The filters were rinsed three times with 5 ml of ice cold 0.05 M Tris-HCl buffer pH 7.7. The radio-labeled ligand retained on the filter was measured by liquid scintillation spectrophotometry after shaking the filters for one hour or longer on a mechanical shaker in 10 ml of Beckman Ready-Solv HP scintillation cocktail. […] The Hill coefficient was calculated by linear regression of the line obtained by plotting the log of the bound radioligand vs the log of the [formula] The maximal number of binding sites (Bmax) was calculated from the Scatchard plot.
# [1] = system: pentobarbital-anesthetized dog; experiment: In Vivo Myocardial Inotropic Activity in Anesthetized Dog (CVAD); design: species or system dog (adult mongrel); settings: for change in vivo at 0.1 mg/kg / change in vivo at 0.31 mg/kg / change in vivo at 1 mg/kg / change in vivo at 3.1 mg/kg / change in vivo at 0.01 mg/kg / change in vivo at 0.03 mg/kg / change in vivo at 0.3 mg/kg: Canis lupus familiaris, iv; for change in vivo at 3.1 mg/kg: 3.10 mg/kg IV; for change in vivo at 0.3 mg/kg: Test 1, 0.30 mg/kg IV
# Protocol: This test procedure is described in the following paragraphs.
# This screen consists of determining the effects of increasing intravenous doses of compound on mycardial contractility (dP/dt max of left ventricular blood pressure), heart rate, and aortic blood pressure of the pentobarbital-anesthetized dog.
# Adult mongrel dogs of either sex are anesthetized with pentobarbital, 35 mg/kg, IV, and are subsequently maintained under anesthesia with a continuous infusion of pentobarbital, 3.5 mg/kg/hour. The trachea is intubated but the animals are permitted to breathe spontaneously. A cannula is inserted into the femoral vein for administrating test agents. A Millar catheter tip pressure transducer or a fluid filled catheter is inserted into the ascending aorta via the femoral artery for measuring aortic blood pressure. A Millar catheter tip pressure transducer is passed into the left ventricle via the left carotid artery for measuring left ventricular blood pressure. Needle electrodes are placed subcutaneously for recording a lead II electrocardiogram (ECG).
# Left ventricular and aortic blood pressures are recorded on a strip chart recorder. Heart rate, using a biotachometer triggered from the R wave of the ECG, and the first derivative of left ventricular blood pressure (dP/dt), obtained with a differentiator amplifier coupled to the corresponding pressure amplifier, are also recorded. A period of at least 30 minutes is utilized to obtain control data prior to administration of test compound.
# Ethanol or dimethylacetamide can be used as solvents if adequate dilutions can be made. Appropriate vehicle controls are administered when needed.
# Each dose of the test compound is administered in a volume of […] over a period of one minute.
# [2] = 0.31 mg/kg IV, read-out: Percent Change Heart Rate
# [3] = 0.31 mg/kg IV, read-out: Percent Change Myocardial Contractility
# [4] = 1.00 mg/kg IV, read-out: Percent Change Heart Rate
# [5] = 1.00 mg/kg IV, read-out: Percent Change Myocardial Contractility
# [6] = read-out: Percent Change Heart Rate
# [7] = read-out: Percent Change Myocardial Contractility
structure (smiles),measurement,setting,value
"Cc1nn(C)c2c(=O)[nH]c(-c3ccc(Cl)cc3)nc12 [Example 7, 1,3-Dimethyl-5-(4-chlorophenyl)pyrazolo[4,3-d]pyrimidne-7-one]",% Inhibition of hydrolysis of 3H-cAMP,Type 1 Phosphodiesterase,7%
same,% Inhibition of hydrolysis of 3H-cGMP,Type 1 Phosphodiesterase,11%
same,% Inhibition of hydrolysis of 3H-cAMP,Type 3 Phosphodiesterase,13%
same,IC50,adenosine A1 receptor,0.408 µM
Cc1nn(C)c2c(=O)[nH]c(-c3ccc(C(F)(F)F)cc3)nc12 [Example 10],% Inhibition of hydrolysis of 3H-cAMP,Type 1 Phosphodiesterase,12%
same,% Inhibition of hydrolysis of 3H-cGMP,Type 1 Phosphodiesterase,1%
same,% Inhibition of hydrolysis of 3H-cAMP,Type 3 Phosphodiesterase,-9%
same,IC50,adenosine A1 receptor,0.463 µM
COc1ccccc1-c1nc2c(C)nn(C)c2c(=O)[nH]1 [Example 14],IC50,adenosine A1 receptor,10 µM
same,change in vivo at 0.1 mg/kg,"[1]; 0.10 mg/kg IV, read-out: Percent Change Heart Rate",2%
same,change in vivo at 0.1 mg/kg,"[1]; 0.10 mg/kg IV, read-out: Percent Change Myocardial Contractility",2%
same,change in vivo at 0.31 mg/kg,[1]; [2],4%
same,change in vivo at 0.31 mg/kg,[1]; [3],4%
same,change in vivo at 1 mg/kg,[1]; [4],14%
same,change in vivo at 1 mg/kg,[1]; [5],10%
same,change in vivo at 3.1 mg/kg,[1]; [6],27%
same,change in vivo at 3.1 mg/kg,[1]; [7],34%
"COc1ccc(-c2nc3c(C)nn(C)c3c(=O)[nH]2)c(OC)c1 [Example 17, 1,3-Dimethyl-5-(2,4-dimethoxyphenyl)pyrazolo[4,3-d]-pyrimidine-7-one]",% Inhibition of hydrolysis of 3H-cAMP,Type 1 Phosphodiesterase,15%
same,% Inhibition of hydrolysis of 3H-cGMP,Type 1 Phosphodiesterase,26%
same,% Inhibition of hydrolysis of 3H-cAMP,Type 3 Phosphodiesterase,17%
same,IC50,adenosine A1 receptor,5.43 µM
"Cc1nn(C)c2c(=O)[nH]c(-c3ccc(Cl)cc3[N+](=O)[O-])nc12 [Example 18, 1,3-Dimethyl-5-(2-nitro-4-chlorophenyl)pyrazolo-[4,3-d]pyrimidine-7-one]",% Inhibition of hydrolysis of 3H-cAMP,Type 1 Phosphodiesterase,7%
same,% Inhibition of hydrolysis of 3H-cGMP,Type 1 Phosphodiesterase,5%
same,% Inhibition of hydrolysis of 3H-cAMP,Type 3 Phosphodiesterase,7%
same,IC50,adenosine A1 receptor,8.5 µM
"Cc1nn(C)c2c(O)nc(-c3ccc(S(=O)(=O)O)cc3)nc12 [Example 20, 1,3-Dimethyl-5-(4-sulfoacid phenyl)pyrazolo[4,3-d]pyrimidine-7-one]",IC50,adenosine A1 receptor,13 µM
Cc1nn(C)c2c(=O)[nH]c(-c3ccc(S(=O)(=O)NCCN(C)C)cc3)nc12 [Example 21],IC50,adenosine A1 receptor,0.684 µM
CCn1nc(C)c2nc(Cc3ccccc3)[nH]c(=O)c21 [Example 22],IC50,adenosine A1 receptor,8.2 µM
same,change in vivo at 0.01 mg/kg,"[1]; Test 1, 0.01 mg/kg IV, read-out: Percent Change Heart Rate",-1%
same,change in vivo at 0.01 mg/kg,"[1]; Test 1, 0.01 mg/kg IV, read-out: Percent Change Myocardial Contractility",11%
same,change in vivo at 0.03 mg/kg,"[1]; Test 1, 0.03 mg/kg IV, read-out: Percent Change Heart Rate",-1%
same,change in vivo at 0.03 mg/kg,"[1]; Test 1, 0.03 mg/kg IV, read-out: Percent Change Myocardial Contractility",12%
same,change in vivo at 0.1 mg/kg,"[1]; Test 1, 0.10 mg/kg IV, read-out: Percent Change Heart Rate",-4%
same,change in vivo at 0.1 mg/kg,"[1]; Test 1, 0.10 mg/kg IV, read-out: Percent Change Myocardial Contractility",17%
same,change in vivo at 0.3 mg/kg,[1]; [6],-10%
same,change in vivo at 0.3 mg/kg,[1]; [7],6%
same,change in vivo at 1 mg/kg,"[1]; Test 1, 1.00 mg/kg IV, read-out: Percent Change Heart Rate",-12%
same,change in vivo at 1 mg/kg,"[1]; Test 1, 1.00 mg/kg IV, read-out: Percent Change Myocardial Contractility",14%
same,change in vivo at 0.01 mg/kg,"[1]; Test 2, 0.01 mg/kg IV, read-out: Percent Change Heart Rate",-14%
same,change in vivo at 0.01 mg/kg,"[1]; Test 2, 0.01 mg/kg IV, read-out: Percent Change Myocardial Contractility",-12%
same,change in vivo at 0.03 mg/kg,"[1]; Test 2, 0.03 mg/kg IV, read-out: Percent Change Heart Rate",-17%
same,change in vivo at 0.03 mg/kg,"[1]; Test 2, 0.03 mg/kg IV, read-out: Percent Change Myocardial Contractility",-13%
same,change in vivo at 0.1 mg/kg,"[1]; Test 2, 0.10 mg/kg IV, read-out: Percent Change Heart Rate",-21%
same,change in vivo at 0.1 mg/kg,"[1]; Test 2, 0.10 mg/kg IV, read-out: Percent Change Myocardial Contractility",-15%
same,change in vivo at 0.31 mg/kg,"[1]; Test 2, 0.31 mg/kg IV, read-out: Percent Change Heart Rate",-22%
same,change in vivo at 0.31 mg/kg,"[1]; Test 2, 0.31 mg/kg IV, read-out: Percent Change Myocardial Contractility",-14%
same,change in vivo at 1 mg/kg,"[1]; Test 2, 1.00 mg/kg IV, read-out: Percent Change Heart Rate",-11%
same,change in vivo at 1 mg/kg,"[1]; Test 2, 1.00 mg/kg IV, read-out: Percent Change Myocardial Contractility",2%
same,Percent Change Blood Pressure,"[1]; Test 1, 0.01 mg/kg IV",1/0
"COc1cc(OC)cc(-c2nc3c(C)nn(C)c3c(=O)[nH]2)c1 [Example 23, 1,3-Dimethyl-5-(3,5-dimethoxyphenyl)pyrazolo[4,3-d]-pyrimidine-7-one]",Percent Change Blood Pressure,[1]; 0.01 mg/kg IV,2/2
same,Percent Change Blood Pressure,[1]; 0.31 mg/kg IV,3/4
same,change in vivo at 0.01 mg/kg,"[1]; 0.01 mg/kg IV, read-out: Percent Change Heart Rate",1%
same,change in vivo at 0.01 mg/kg,"[1]; 0.01 mg/kg IV, read-out: Percent Change Myocardial Contractility",5%
same,change in vivo at 0.31 mg/kg,[1]; [2],3%
same,change in vivo at 0.31 mg/kg,[1]; [3],15%
same,change in vivo at 1 mg/kg,[1]; [4],6%
same,change in vivo at 1 mg/kg,[1]; [5],22%
